Measurements reported in PMC9994261 (Cell, 2023).
Converted amounts (≈) assume the structure as drawn. “And” between values parts separate entries of the source, which are not always exact repeats. Equal entries are not always repeated. Where two headings read alike, the source gives them in different places.

Experiments:
[1] = system: Mtb H37Rv SEQ-9 resistant mutants; assay type: cell-based, Mycobacterium tuberculosis
Mtb clinical strains = assay: microbe, parasite or virus in culture; assay type: cell-based; conditions: Mycobacterium tuberculosis, read-out: MIC against Mtb clinical strain

SMILES: CC(=O)NC[C@H]1CN(c2ccc(N3CCOCC3)c(F)c2)C(=O)O1 [Linezolid]
- Growth inhibition (MIC80) [1]: 0.92 µM and 0.95 µM and 1.14 µM and 0.80 µM and 0.79 µM

SMILES: CC[C@H]1OC(=O)[C@H](C)[C@@H](O[C@H]2C[C@@](C)(OC)[C@@H](O)[C@H](C)O2)[C@H](C)[C@@H](O[C@@H]2O[C@H](C)C[C@H](N(C)C)[C@H]2O)[C@](C)(OC)C[C@@H](C)C(=O)[C@H](C)[C@@H](O)[C@]1(C)O [Clarithromycin]
- Growth inhibition @ 30µM ([1]; 30 µM): 55% and 70%

SMILES: COc1nc2ccc(Br)cc2cc1[C@@H](c1ccccc1)[C@@](O)(CCN(C)C)c1cccc2ccccc12 [BDQ, Bedaquiline]
- Growth inhibition (MIC80) [1]: 0.044 µM and 0.042 µM and 0.036 µM

SMILES: CON=C1CC(C)OC(OC2C(C)CC(C)(OC(=O)NC(C)(C)CNS(=O)(=O)c3ccccc3)C(=O)C(C)C(OC(=O)CC(C)C)C(C)C(C(C)COC3OC(C)C(O)C(OC)C3OC)OC(=O)C(C)C(OC3CC(C)N(C)CC(C)O3)C2C)C1O (stereo not drawn) [SEQ-9]
- MIC (Mtb clinical strains; KMA1354-Modern): 0.9 µM (≈ 1.12 µg/mL)
- MIC (Mtb clinical strains; KMA3899-Ancient): 1.4 µM (≈ 1.74 µg/mL)
- MIC (Mtb clinical strains; KMA4244-Modern): 1.4 µM (≈ 1.74 µg/mL)
- MIC (Mtb clinical strains; KMA4439-Modern): 1.4 µM (≈ 1.74 µg/mL)
- MIC (Mtb clinical strains; KMA5282-Modern): 0.6 µM (≈ 0.746 µg/mL)
- MIC (Mtb clinical strains; KMA5319-Modern): 0.7 µM (≈ 0.87 µg/mL)
